For two compounds, Activity and inhibition results are on record in ChEMBL document CHEMBL2331328, “Synthetic approaches to DNMT inhibitor SGI-1027 and effects on the U937 leukemia cell line” (Bioorg Med Chem Lett, 2013).

For experiment [1], the system named is U-937. Briefly: Cell cycle arrest in human U937 cells at 5 to 50 uM after 30 hrs by FACS analysis. It counts as functional, cell-based.
The target in experiment [2] is DNA (cytosine-5)-methyltransferase 1 (Homo sapiens) (UniProt P26358). As to the kind of experiment: Inhibition of human DNMT1 using AdoMet and poly dI-dC at 50 uM after 2 hrs by radioactive assay.
Experiment [3] concerns U-937. Briefly: Induction of apoptosis in human U937 cells assessed as accumulation at pre-G1 phase after 30 hrs by FACS analysis. In kind it is functional, cell-based.

Activity calls are given as the source filed them. The calls are words filed in the database; no cut-off is given here.

Chain of DNA (cytosine-5)-methyltransferase 1 (Homo sapiens) (P26358 whole entry): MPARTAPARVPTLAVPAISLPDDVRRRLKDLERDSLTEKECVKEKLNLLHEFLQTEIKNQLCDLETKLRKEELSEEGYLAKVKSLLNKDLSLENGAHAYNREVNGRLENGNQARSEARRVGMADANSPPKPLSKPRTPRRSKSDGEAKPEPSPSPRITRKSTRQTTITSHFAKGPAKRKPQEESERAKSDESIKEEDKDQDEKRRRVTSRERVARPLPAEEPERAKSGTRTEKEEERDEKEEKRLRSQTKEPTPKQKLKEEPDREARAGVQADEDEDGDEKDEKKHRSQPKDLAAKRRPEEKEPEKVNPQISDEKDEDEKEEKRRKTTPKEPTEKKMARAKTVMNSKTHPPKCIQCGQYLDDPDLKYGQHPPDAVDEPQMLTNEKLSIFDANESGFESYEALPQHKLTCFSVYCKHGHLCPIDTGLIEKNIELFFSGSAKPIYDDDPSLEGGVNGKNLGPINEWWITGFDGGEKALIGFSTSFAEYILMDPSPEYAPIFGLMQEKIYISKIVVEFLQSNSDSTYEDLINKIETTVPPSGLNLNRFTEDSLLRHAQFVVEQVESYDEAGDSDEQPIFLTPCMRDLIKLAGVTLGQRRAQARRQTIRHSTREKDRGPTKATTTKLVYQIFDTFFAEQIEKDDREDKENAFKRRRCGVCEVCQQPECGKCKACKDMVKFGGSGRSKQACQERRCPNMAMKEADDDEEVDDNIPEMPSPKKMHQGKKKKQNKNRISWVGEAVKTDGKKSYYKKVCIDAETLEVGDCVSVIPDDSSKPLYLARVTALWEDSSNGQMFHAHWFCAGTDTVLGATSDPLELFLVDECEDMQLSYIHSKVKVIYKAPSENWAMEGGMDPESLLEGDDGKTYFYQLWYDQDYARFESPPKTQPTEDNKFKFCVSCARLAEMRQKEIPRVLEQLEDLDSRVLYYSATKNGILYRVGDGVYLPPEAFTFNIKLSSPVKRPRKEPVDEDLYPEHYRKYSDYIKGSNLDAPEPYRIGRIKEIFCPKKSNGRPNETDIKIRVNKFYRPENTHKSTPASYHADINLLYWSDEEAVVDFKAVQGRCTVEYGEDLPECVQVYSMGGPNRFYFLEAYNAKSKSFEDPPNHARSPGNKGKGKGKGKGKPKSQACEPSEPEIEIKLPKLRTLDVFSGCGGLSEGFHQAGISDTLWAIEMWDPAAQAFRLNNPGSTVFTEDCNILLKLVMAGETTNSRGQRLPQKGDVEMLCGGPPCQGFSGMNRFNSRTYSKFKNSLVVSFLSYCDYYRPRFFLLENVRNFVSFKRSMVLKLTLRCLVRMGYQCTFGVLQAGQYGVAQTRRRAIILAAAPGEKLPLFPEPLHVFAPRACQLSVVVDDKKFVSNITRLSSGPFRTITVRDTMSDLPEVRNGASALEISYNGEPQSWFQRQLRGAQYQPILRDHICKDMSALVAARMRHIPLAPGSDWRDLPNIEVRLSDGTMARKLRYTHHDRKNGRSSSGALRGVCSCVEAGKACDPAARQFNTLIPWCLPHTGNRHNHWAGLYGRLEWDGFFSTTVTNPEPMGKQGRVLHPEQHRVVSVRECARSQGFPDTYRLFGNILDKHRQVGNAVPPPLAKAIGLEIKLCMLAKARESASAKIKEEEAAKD

With `Cc1cc(Nc2ccc(NC(=O)c3ccc(Nc4ccnc5ccccc45)cc3)cc2)nc(N)n1`, the outcome with U-937 [1] was inactive. Further, the inhibition result in experiment [2] is “Active”. The Activity result in the experiment on U-937 [3] was “Dose-dependent effect”.
Turning to `O=C(O)[C@H](Cc1c[nH]c2ccccc12)N1C(=O)c2ccccc2C1=O`, the inhibition result in experiment [2] is “Active”.
